Experimental data: US20250230129A1, “POLYAMIDE COMPOUNDS, METHOD FOR PREPARING SAME, AND MEDICAL USE THEREOF” (priority 2022, published 2025)
Where two headings read alike, the source gives them in different places.

Tests used:
δ receptor = δ receptor (Homo sapiens (Human), UniProt P41143); experiment: Competitive delta receptor binding assay (3H-DADLE)
[1] = PK and blood-brain barrier permeability in mice; format: in vivo; details: male ICR mice, intravenous 1 mg/kg
Protocol: The compounds of the present disclosure were investigated for pharmacokinetic characteristics and blood-brain barrier permeability in mice.
Healthy male ICR mice were randomly grouped, 6 animals per group. For each test compound, 3 groups of animals were used. The first group of animals was used for collecting blood and brain 5 min after the administration, and the second group of animals and the third group of animals were used for cross blood collection at subsequent time points; each test compound was intravenously administered (1 mg/kg) to corresponding groups of mice, and blood sampling via submaxillary veins of the mice was carried out at different time points. Drug contents in plasma and brain tissues at different time points were measured by an LC-MS/MS method, the brain-to-blood ratio B/P was calculated by using EXCEL software, and pharmacokinetic parameters were calculated by using DAS3.0 software.

μ receptor = μ receptor (Homo sapiens (Human), UniProt P35372); experiment: μ receptor affinity assay (3H-DAMGO); format: binding
ICR mice [2] = experiment: Acetic acid writhing test in mice; format: in vivo; details: Mus musculus, read-out: Acetic acid writhing in mice ED50
ICR mice [3] = experiment: Sedation safety window; details: sedation side effect ED50 (autonomic activity test)/efficacy ED50 (acetic acid writhing test)
[4] = biological target: κ-opioid receptor (Kappa) (Homo sapiens (Human), UniProt P41145); experiment: In vitro functional assay, HTRF cAMP-Gi in CHO-K1-OPRK1 cells; format: cell-based
[5] = Autonomous activity test in mice; details: male, ICR, mouse, in vivo, iv
hERG = hERG (Homo sapiens (Human), UniProt Q12809); experiment: in vitro; details: pH 7.4
κ receptor = κ receptor (Homo sapiens (Human), UniProt P41145); experiment: Competitive Kappa receptor binding assay (3H-U69593)
ICR mice [6] = details: mouse, in vivo
in vivo = details: male, ICR, mouse, iv
[7] = single intravenous injection, male ICR mice

Structure (SMILES) | Ki (δ receptor) [nM] | B/P (brain-to-blood ratio) ([1]; blood and brain 5 min after administration) | AUC(0-inf) ([1]; mouse, plasma) [ng·h/mL] | Vd ([1]; mouse, plasma) [L/kg] | clearance ([1]; mouse, plasma) [mL/min/kg] | half-life ([1]; mouse, plasma, read-out: t½ (converted)) [min] | Cmax ([1]; mouse, plasma) [ng/mL] | Ki (μ receptor) [nM] | ED50 (ICR mice [2]; [7]) [mg/kg] | Safety window (ICR mice [3]) | EC50 [4] [nM] | ED50 at 30 min [5] [mg/kg] | inhibition at 10 µM (hERG) [%] | Ki (κ receptor) [nM] | Safety window (ICR mice [6]) | ED50 (ICR mice [2]; iv) [mg/kg] | ED50 (in vivo) [mg/kg]
CC(C)C[C@@H](NC(=O)[C@@H](Cc1ccccc1)NC(=O)N(CCN)Cc1ccccc1)C(=O)N[C@H](CCCCN)C(=O)N1CCC(N)(C(=O)O)CC1 [Compound 13] | > 1000 | 0.015 | 1350 | 0.38 | 12.3 | 21 | 2540 | > 1000 | 0.23 | 12.30 | 0.52 | 2.83 | 0.8 | 0.13 | – | – | –
CC(C)C[C@@H](NC(=O)[C@@H](Cc1ccccc1)NC(=O)[C@H](N)Cc1ccccc1)C(=O)N[C@H](CCCCN)C(=O)N1CCC2(CC1)OC(=O)Nc1ncccc12 [Compound 4A, (2R)—N-[(2R)-6-amino-1-oxo-1-{2′-oxo-1′H-spiro[piperidine-4,4′-pyrido[2,3-d][1,3]oxazin]-1-yl}hex-2-yl]-2-[(2R)-2-[(2R)-2-amino-3-phenylpropionylamino]-3-phenylpropionylamino]-4-methylpentanamide] | > 1000 | – | – | – | – | – | – | > 1000 | 0.41 | 3.05 | 0.2 | 1.25 | 0.9 | 0.3 | – | – | –
COC(=O)NC1CCN(C(=O)[C@@H](CCCCN)NC(=O)[C@@H](CC(C)C)NC(=O)[C@@H](Cc2ccccc2)NC(=O)[C@H](N)Cc2ccccc2)CC1 [Compound 1A] | > 1000 | – | – | – | – | – | – | > 1000 | 0.38 | – | 0.05 | 1.08 | -0.94 | 0.4 | 2.84 | – | –
CC(=O)N=S1(=O)CCN(C(=O)[C@@H](CCCCN)NC(=O)[C@@H](CC(C)C)NC(=O)[C@@H](Cc2ccccc2)NC(=O)[C@H](N)Cc2ccccc2)CC1 [Compound 3B] | > 1000 | – | – | – | – | – | – | > 1000 | – | – | 1 | – | 1.13 | 1.05 | 7.74 | 0.42 | –
CC(C)C[C@@H](NC(=O)[C@@H](Cc1ccccc1)NC(=O)[C@H](N)Cc1ccccc1)C(=O)N[C@H](CCCCN)C(=O)N1CCS(=N)(=O)CC1 [Compound 1B, (R)—N—((R)-6-amino-1-(1-imino-1-oxo-1λ6-thiomorpholine)-1-oxohex-2-yl)-2-((R)-2-((R)-2-amino-3-phenylpropionylamino)-3-phenylpropionylamino)-4-methylpentanamide] | > 1000 | – | – | – | – | – | – | > 1000 | – | – | 0.52 | – | 1.2 | 0.42 | 2.50 | 0.2 | 0.5
